Like-named read-outs stand apart in the source and are kept apart here. One block for each compound: values may come before it.
Legend:
Assay type in all cases: biochemical
[1] = molecular target: T1, recombinant human MAO-B (Homo sapiens, UniProt P27338); assay: Fluorometric kynuramine deamination assay, MAO-B inhibition (IC50); conditions: for IC50: kynuramine 50 μM, mean ± SD of triplicate, read-out: Monoamine oxidase-B IC50; for Index MAO-A/B: ratio of IC50 MAO-A / IC50 MAO-B
T1 construct: purchased BD Biosciences (Bedford, MA, USA); host or cells: baculovirus (Autographa californica) infected insect cells (BTI-TN-5B1-4)
T1 sequence (P27338 1-520): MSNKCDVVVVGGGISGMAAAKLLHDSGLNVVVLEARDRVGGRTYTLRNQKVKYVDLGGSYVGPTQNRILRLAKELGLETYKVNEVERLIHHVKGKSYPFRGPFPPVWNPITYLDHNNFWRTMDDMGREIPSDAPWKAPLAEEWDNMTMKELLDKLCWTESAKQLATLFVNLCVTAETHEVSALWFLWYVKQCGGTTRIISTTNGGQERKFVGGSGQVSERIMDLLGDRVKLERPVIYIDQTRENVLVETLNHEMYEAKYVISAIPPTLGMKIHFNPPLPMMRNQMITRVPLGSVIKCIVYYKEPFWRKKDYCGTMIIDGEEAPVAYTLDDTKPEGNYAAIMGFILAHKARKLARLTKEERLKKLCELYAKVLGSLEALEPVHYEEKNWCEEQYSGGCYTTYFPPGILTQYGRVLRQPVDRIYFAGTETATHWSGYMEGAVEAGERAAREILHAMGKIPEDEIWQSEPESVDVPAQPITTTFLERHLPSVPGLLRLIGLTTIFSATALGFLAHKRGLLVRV
Description: (§1) Pure recombinant human monoamine oxidases (MAO-A and MAO-B) enzymes overexpressed in baculovirus (Autographa californica) infected insect cells (BTI-TN-5B1-4) were purchased from BD Biosciences, (Bedford, MA, USA).
(§2) Stock solutions of the test compounds/extracts were prepared in DMSO and diluted further in 0.1 M potassium phosphate buffer (pH 7.4) to obtain the desired concentrations. MAO-A and MAO-B activities were determined by fluorometric kynuramine deamination assay set up in 384-well solid white flat-bottom plates. MAO-A and MAO-B inhibition activities (IC50 values) were determined using fixed concentration of the substrate kynuramine and varying concentrations of the test compounds or extracts. The enzyme reactions were carried out in 0.1 M potassium phosphate buffer (pH-7.4). […] The reaction mixtures with buffer/substrate/inhibitor were preincubated for 10 minutes at 37°C, followed by addition of MAO-A and MAO-B to initiate the reaction. The solid white microplates were incubated for 20 minutes at 37°C and the enzymatic reaction was stopped by addition of 28 µL of 2 N NaOH to each well. The deaminated product of kynuramine, which spontaneously cyclizes to 4-hydroxyquinoline, was measured fluorometrically at 320 nm excitation and 380 nm emission wavelengths with a plate reader (SpectraMax M5, Molecular Devices, Sunnyvale, CA, USA). The IC50 values were computed by XL-Fit® from the dose-response inhibition curves.

[2] = molecular target: T2, recombinant human MAO-A (Homo sapiens, UniProt P21397); assay: Fluorometric kynuramine deamination assay, MAO-A inhibition (IC50)
T2 construct: purchased BD Biosciences (Bedford, MA, USA); host or cells: baculovirus (Autographa californica) infected insect cells (BTI-TN-5B1-4)
T2 sequence (P21397 1-527): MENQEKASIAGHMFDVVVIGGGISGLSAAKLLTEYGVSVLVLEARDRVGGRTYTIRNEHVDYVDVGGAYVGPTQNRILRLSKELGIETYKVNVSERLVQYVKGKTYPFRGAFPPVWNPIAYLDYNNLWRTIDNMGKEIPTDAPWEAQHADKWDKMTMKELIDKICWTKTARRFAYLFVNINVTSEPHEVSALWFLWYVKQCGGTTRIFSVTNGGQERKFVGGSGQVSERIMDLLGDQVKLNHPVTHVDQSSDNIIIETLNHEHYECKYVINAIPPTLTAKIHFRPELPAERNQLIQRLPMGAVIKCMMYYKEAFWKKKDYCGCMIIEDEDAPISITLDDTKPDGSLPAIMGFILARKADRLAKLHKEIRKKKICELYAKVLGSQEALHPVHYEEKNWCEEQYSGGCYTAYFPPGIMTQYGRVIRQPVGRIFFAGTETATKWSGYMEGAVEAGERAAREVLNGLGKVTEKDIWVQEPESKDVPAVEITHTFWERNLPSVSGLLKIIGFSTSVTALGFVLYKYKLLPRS
Description: as §1, §2

[3] = molecular target: T2, recombinant human MAO-A; assay: Time-dependent enzyme inhibition assay, MAO-A; conditions: 7.50 μM, preincubation 0-15 min
Description: (§3) MAO-A and MAO-B enzymes were preincubated for different time periods (0–15 min) with the inhibitor. […] Controls without inhibitors were also run simultaneously. The enzyme activities were determined as described above.
(§4) The control enzymes without inhibitor were also run concurrently. […] The binding characteristics of desmethoxyyangonin 6 with MAO-A and MAO-B were examined by equilibrium dialysis to measure dissociation of the enzyme-inhibitor complex (Figure 6). MAO-A and MAO-B were incubated with high concentration of desmethoxyyangonin 6 for 20 minutes at 37°C to allow binding of inhibitor with the enzyme and formation of enzyme-inhibitor complex. The mixtures of enzyme-inhibitor complex were dialyzed overnight at 4°C against 25 mM KHPO4 (pH-7.4) buffer. The enzyme activities were examined before and after dialysis. Through overnight dialysis, the recombinant human MAO-A enzyme lost about 10–15% of activity. Incubation of MAO-A with 20.0 and 100 μM concentrations of desmethoxyyangonin 6 inhibited more than 65% of the enzyme activity (Figure 6). After the dialysis, more than 90% catalytic activity of MAO-A was recovered from enzyme-desmethoxyyangonin 6 incubation mixtures. Similarly, MAO-B lost about 10–15% of the enzyme activity during overnight dialysis.

[4] = molecular target: T2, recombinant human MAO-A; assay: Enzyme kinetics and mechanism of inhibition of MAO-A; conditions: Lineweaver-Burk / dialysis
Description: (§5) Results are presented as double reciprocal Lineweaver-Burk plots. The kinetic data, namely, KM, Vmax, and Ki values, were calculated by SigmaPlot 12.3 with enzyme-kinetics module using Michaelis-Menten equation. The results were also analyzed for the type of inhibition.
(§6) To comprehend the type of inhibition, we examined 6 against both MAO-A and MAO-B at varying concentrations of kynuramine, a nonselective substrate. Desmethoxyyangonin 6 was tested at two concentrations: one above and the other below the IC50 value. For each experiment, three sets of assays were done at variable concentrations of the substrate: two concentrations of the inhibitor/compound and one control without inhibitors. The results are presented as double reciprocal Lineweaver-Burk plots and the kinetic data, namely, KM, Vmax, and Ki values, were computed by SigmaPlot 12.3 with enzyme-kinetics module using Michaelis-Menten equation (Table 2).

[5] = molecular target: T1, recombinant human MAO-B; assay: Time-dependent enzyme inhibition assay, MAO-B; conditions: 0.40 μM, preincubation 0-15 min
Description: as §3, §4

[6] = molecular target: T2, recombinant human MAO-A; assay: Equilibrium dialysis assay of enzyme-inhibitor complex, MAO-A
Description: (§7) Binding and inhibition of MAO-A and MAO-B with desmethoxyyangonin 6 were further examined by incubating the enzyme with high concentrations of the inhibitor followed by extensive dialysis of the enzyme-inhibitor complex and recovery of enzyme activities. MAO-A (0.05 mg/mL protein) was incubated with desmethoxyyangonin 6 (20 μM and 100.0 μM) and MAO-B (0.05 mg/mL protein) was incubated with desmethoxyyangonin 6 (1.50 μM and 20.0 μM) in an enzyme incubation mixture of 1 mL containing 100 mM potassium phosphate buffer (pH 7.4). Formation of enzyme-inhibitor complex was allowed by incubation of the reaction mixtures for 20 min at 37°C. The enzyme-inhibitor mixtures after incubation were chilled, transferred to the dialysis bags, and dialyzed against 25 mM potassium phosphate buffer (pH 7.4) for 14–16 hours at 4°C (changing the dialysis buffer three times). The enzyme catalytic activities were measured before and after dialysis.
as §4

[7] = molecular target: T1, recombinant human MAO-B; assay: Equilibrium dialysis assay of enzyme-inhibitor complex, MAO-B
Description: as §7, §4

[8] = molecular target: T1, recombinant human MAO-B; assay: Enzyme kinetics and mechanism of inhibition of MAO-B; conditions: for Type of Inhibition, Monoamine oxidase-B: Lineweaver-Burk / dialysis; for Selectivity / higher affinity for MAO-B than MAO-A (by Ki): from Ki values
Description: as §5, §6

[9] = kynuramine 80 μM, mean ± SD of triplicate, read-out: Monoamine oxidase-A IC50
[10] = equilibrium dialysis dissociation

- IC50 [1]: 35.38 ± 0.121 µM
- IC50 [2, 9]: > 100 µM
Structure (SMILES): O[C@H](CCc1ccccc1)C[C@@H](O)CCc1ccccc1 [Yashabushidiol A, 5, 3,5-heptanediol-1,7-diphenyl]

- IC50 [1]: > 100 µM
- IC50 [2, 9]: 31.4 ± 4.58 µM
Structure (SMILES): COc1ccc([C@@H]2CC(=O)c3c(O)cc(OC)cc3O2)cc1 [4′-Methyl ether sakuranetin, 2, naringenin 7,4′-dimethyl ether]

- IC50 [1]: 10 ± 3.24 µM
- IC50 [2, 9]: 6.33 ± 0.206 µM
Structure (SMILES): COc1cc(O)c(C(=O)/C=C/c2ccccc2)c(O)c1 [Pinostrobin chalcone, 4, 2′,6′-dihydroxy-4′-methoxychalcone]

Structure (SMILES): COc1cc(O)c2c(c1)O[C@H](c1ccc(O)cc1)CC2=O [Sakuranetin, 3, naringenin 7-methyl ether]
- IC50 [1]: 36.5 ± 6.63 µM
- Index MAO-A/B [1]: 1.246
- IC50 [2]: 45.5 ± 5.71 µM

- Time dependence of MAO-A inhibition [3]: not time-dependent
- Preferential inhibition of MAO-B than MAO-A (by IC50) ([1]; from IC50 values): 15 fold
- IC50 [1]: 0.123 µM
- Type of Inhibition, Monoamine oxidase-A [4]: Mixed/reversible
- Type of Inhibition, Monoamine oxidase-A ([4]; listed as desmethoxyyangonin 6): mixed inhibitor
- Time dependence of MAO-B inhibition [5]: not time-dependent
- Inhibition of MAO-A enzyme activity before dialysis ([6]; 20.0 and 100 μM, 20 min at 37°C): more than 65%
- Catalytic activity of MAO-A recovered after dialysis ([6]; 20.0 and 100 μM, overnight dialysis at 4°C): more than 90%
- Reversibility of MAO-A inhibition [6, 10]: reversible binding
- Inhibition of MAO-B enzyme activity before dialysis ([7]; 1.50 and 20.0 μM, 20 min at 37°C): more than 90%
- Recovery of MAO-B enzyme activity after dialysis ([7]; 1.50 and 20.0 μM, overnight dialysis at 4°C): fully recovered
- Reversibility of MAO-B inhibition [7, 10]: reversible binding
- MAO inhibition in words ([2]; MAO-A and MAO-B inhibition assays): potent MAO inhibition
- IC50 [2, 9]: 1.85 ± 0.086 µM
- Type of Inhibition, Monoamine oxidase-B [8]: Competitive/reversible
- Type of Inhibition, Monoamine oxidase-B ([8]; listed as 6): competitive
- Selectivity / higher affinity for MAO-B than MAO-A (by Ki) ([8]; listed as Compound 6): about 30 fold
- Selectivity / higher affinity for MAO-B than MAO-A (by Ki) ([8]; listed as desmethoxyyangonin 6): 29 fold
Structure (SMILES): COc1cc(/C=C/c2ccccc2)oc(=O)c1 [Desmethoxyyangonin, 6, desmethoxyyangonin]

- IC50 [1]: 45.5 ± 4.31 µM
- Index MAO-A/B [1]: 0.524
- IC50 [2, 9]: 23.9 ± 1.35 µM
Structure (SMILES): COc1cc(O)c2c(c1)O[C@H](c1ccccc1)CC2=O [Pinostrobin, 1, pinostrobin]

— paper PMC5613693, “Interactions of Desmethoxyyangonin, a Secondary Metabolite from Renealmia alpinia, with Human Monoamine Oxidase-A and Oxidase-B” (Evidence-based Complementary and Alternative Medicine : eCAM, 2017)
